Data: ChEMBL document CHEMBL5113529, “Design, Synthesis, and Biological Evaluation of Dual-Target COX-2/CYP51 Inhibitors for the Treatment of Fungal Infectious Diseases” (J Med Chem, 2022)
≈ marks a conversion by molar mass, not a printed value. Calls of active or inactive are those of the source. The rule behind the calls is not given here.

What was measured:
Pichia kudriavzevii [1] = test: Antifungal activity against Candida krusei ATCC 6258 assessed as fungal growth inhibition measured after 72 hrs by double dilution method; format: functional
Candida tropicalis [2] = test: Antifungal activity against Candida tropicalis ATCC 1369 assessed as fungal growth inhibition measured after 72 hrs by double dilution method; format: functional
Candida albicans [3] = test: Antifungal activity against Candida albicans ATCC SC5314 assessed as fungal growth inhibition measured after 72 hrs by double dilution method; format: functional
Cryptococcus neoformans [4] = test: Antifungal activity against Cryptococcus neoformans ZKCC 2209 assessed as fungal growth inhibition measured after 72 hrs by double dilution method; format: functional
Aspergillus fumigatus [5] = test: Antifungal activity against Aspergillus fumigatus KM8001 assessed as fungal growth inhibition measured after 72 hrs by double dilution method; format: functional
Candida albicans [6] = test: Antifungal activity against Candida albicans ATCC SC5314 assessed as induction of ROS production by measuring fluorescence intensity incubated for 12 hrs by KGT010-1 staining based fluorescence microscopy; format: functional, organism-based
Candida tropicalis [7] = test: microbe, parasite or virus in culture; settings: ATCC 1369, 72 h
Description: Antifungal activity against Candida tropicalis ATCC 1369 assessed as fungal growth inhibition measured after 72 hrs in presence of fluconazole by double dilution method

[8] = target: T1, Prostaglandin G/H synthase 2 (Homo sapiens, UniProt P35354); test: Inhibition of COX-2 (unknown origin) using arachidonic acid as substrate preincubated for 10 mins followed by substrate addition and measured after 2 mins by immunoassay
T1 sequence (P35354 whole entry): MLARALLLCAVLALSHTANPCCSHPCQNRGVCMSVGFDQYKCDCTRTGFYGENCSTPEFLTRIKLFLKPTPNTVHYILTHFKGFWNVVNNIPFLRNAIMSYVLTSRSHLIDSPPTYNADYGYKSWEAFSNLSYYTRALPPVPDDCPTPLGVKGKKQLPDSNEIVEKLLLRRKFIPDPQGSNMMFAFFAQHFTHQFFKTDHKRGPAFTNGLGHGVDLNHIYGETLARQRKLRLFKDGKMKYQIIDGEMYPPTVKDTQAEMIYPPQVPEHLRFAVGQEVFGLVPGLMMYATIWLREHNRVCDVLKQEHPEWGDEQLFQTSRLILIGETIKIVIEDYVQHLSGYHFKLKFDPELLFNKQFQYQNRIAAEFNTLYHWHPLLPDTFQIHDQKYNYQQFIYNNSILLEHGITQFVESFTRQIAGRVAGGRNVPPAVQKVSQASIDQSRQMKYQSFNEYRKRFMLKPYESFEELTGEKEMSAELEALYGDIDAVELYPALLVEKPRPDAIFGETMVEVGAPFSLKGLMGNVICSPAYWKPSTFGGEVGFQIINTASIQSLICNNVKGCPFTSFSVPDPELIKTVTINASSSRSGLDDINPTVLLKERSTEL

Pichia kudriavzevii [9] = test: microbe, parasite or virus in culture; settings: ATCC 6258, 72 h
Description: Antifungal activity against Candida krusei ATCC 6258 assessed as fungal growth inhibition measured after 72 hrs in presence of fluconazole by double dilution method

Cryptococcus neoformans [10] = test: microbe, parasite or virus in culture; settings: ZKCC 2209, 72 h
Description: Antifungal activity against Cryptococcus neoformans ZKCC 2209 assessed as fungal growth inhibition measured after 72 hrs in presence of fluconazole by double dilution method

Candida albicans [11] = test: microbe, parasite or virus in culture; settings: Candida albicans, 904, 72 h
Description: Antifungal activity against fluconazole- resistant Candida albicans 904 assessed as fungal growth inhibition measured after 72 hrs in presence of fluconazole by double dilution method

Candida albicans [12] = test: microbe, parasite or virus in culture; settings: Candida albicans, 901, 72 h
Description: Antifungal activity against fluconazole- resistant Candida albicans 901 assessed as fungal growth inhibition measured after 72 hrs in presence of fluconazole by double dilution method

Candida albicans [13] = test: microbe, parasite or virus in culture; settings: Candida albicans, 632, 72 h
Description: Antifungal activity against fluconazole- resistant Candida albicans 632 assessed as fungal growth inhibition measured after 72 hrs in presence of fluconazole by double dilution method

Aspergillus fumigatus [14] = test: Antifungal activity against Aspergillus fumigatus KM8001 assessed as fungal growth inhibition measured after 72 hrs in presence of fluconazole by double dilution method; settings: KM8001, 72 h
Candida albicans [15] = test: Antifungal activity against fluconazole- resistant Candida albicans CaR assessed as fungal growth inhibition measured after 72 hrs in presence of fluconazole by double dilution method
Candida albicans [16] = test: Antifungal activity against Candida albicans ATCC SC5314 assessed as fungal growth inhibition measured after 72 hrs in presence of fluconazole by double dilution method; settings: ATCC SC5314, 72 h
Candida albicans [17] = test: Antifungal activity against fluconazole- resistant Candida albicans 17# assessed as fungal growth inhibition measured after 72 hrs in presence of fluconazole by double dilution method
Candida albicans [18] = test: Induction of mitochondrial membrane potential loss in Candida albicans ATCC SC5314 assessed as polarized cells at 1 umol/ml incubated for 24 hrs by JC-1 staining based flow cytometry assay (reference value: 0.69%); format: functional; settings: dose 1 µmol/L, at 1 µM
Candida albicans [19] = test: Induction of apoptosis in Candida albicans ATCC SC5314 assessed as necrotic cells incuabted for 24 hrs by V-FITC/PI staining based flow cytometry analysis (reference value: 1.77%); format: functional
Candida albicans [20] = test: Induction of apoptosis in Candida albicans ATCC SC5314 assessed as late apoptotic cells incuabted for 24 hrs by V-FITC/PI staining based flow cytometry analysis (reference value: 0.36%); format: functional
Candida albicans [21] = test: Induction of apoptosis in Candida albicans ATCC SC5314 assessed as normal cells incuabted for 24 hrs by V-FITC/PI staining based flow cytometry analysis (reference value: 96.78%); format: functional
Candida albicans [22] = test: Induction of mitochondrial membrane potential loss in Candida albicans ATCC SC5314 assessed as depolarized cells at 1 umol/ml incubated for 24 hrs by JC-1 staining based flow cytometry assay (reference value: 0.76 to 3.29%); format: functional; settings: dose 1 µmol/L, at 1 µM
Candida albicans [23] = test: Induction of mitochondrial membrane potential loss in Candida albicans ATCC SC5314 assessed as normal cells at 1 umol/ml incubated for 24 hrs by JC-1 staining based flow cytometry assay (reference value: 95.26%); format: functional; settings: dose 1 µmol/L, at 1 µM
Candida albicans [24] = test: Induction of apoptosis in Candida albicans ATCC SC5314 assessed as mid apoptotic cells incuabted for 24 hrs by V-FITC/PI staining based flow cytometry analysis (reference value: 1.09%); format: functional

SMILES | MIC50 (Pichia kudriavzevii [1]) [µg/mL] | MIC50 (Candida tropicalis [2]) [µg/mL] | MIC50 (Candida albicans [3]) [µg/mL] | MIC50 (Cryptococcus neoformans [4]) [µg/mL] | MIC50 (Aspergillus fumigatus [5]) [µg/mL] | other results
C[C@H](C(=O)NC(Cn1cncn1)C(=O)c1ccccc1)c1cccc(C(=O)c2ccccc2)c1 (some centres undefined) | 1 (≈ 2.21 µM) | 0.5 (≈ 1.1 µM) | 5 (≈ 11 µM) | 0.5 (≈ 1.1 µM) | 4 (≈ 8.84 µM) | 
C[C@H](C(=O)NC(Cn1ccnc1)C(=O)c1ccccc1)c1ccc(-c2ccccc2)c(F)c1 (some centres undefined) | 0.25 (≈ 0.566 µM) | 0.5 (≈ 1.13 µM) | 0.5 (≈ 1.13 µM) | 0.5 (≈ 1.13 µM) | > 8 | 
CC(C)OC(=O)[C@@H](Cn1ccnc1)NC(=O)[C@@H](C)c1ccc(-c2ccccc2)c(F)c1 | 3 (≈ 7.08 µM) | 1 (≈ 2.36 µM) | 0.5 (≈ 1.18 µM) | 0.25 (≈ 0.59 µM) | > 8 | 
COc1ccc2cc([C@H](C)C(=O)N[C@H](Cn3ccnc3)C(=O)OC(C)C)ccc2c1 | 0.25 (≈ 0.611 µM) | 1 (≈ 2.44 µM) | 0.5 (≈ 1.22 µM) | 0.5 (≈ 1.22 µM) | 4 (≈ 9.77 µM) | 
COc1ccc2cc([C@H](C)C(=O)N[C@H](Cn3ccnc3)C(=O)NC3CCCCC3)ccc2c1 | 0.5 (≈ 1.11 µM) | 0.5 (≈ 1.11 µM) | 1 (≈ 2.23 µM) | 1 (≈ 2.23 µM) | 4 (≈ 8.92 µM) | Activity (Candida albicans [6]): Active
COc1ccc2cc([C@H](C)C(=O)O)ccc2c1 [NAPROXEN] |  |  |  |  |  | MIC50 (Candida tropicalis [7]): 0.5 µg/mL (≈ 2.17 µM); IC50 [8]: 2390 nM; MIC50 (Pichia kudriavzevii [9]): 1 µg/mL (≈ 4.34 µM); MIC50 (Cryptococcus neoformans [10]): 0.25 µg/mL (≈ 1.09 µM); MIC50 (Candida albicans [11]): 2 µg/mL (≈ 8.69 µM); MIC50 (Candida albicans [12]): 4 µg/mL (≈ 17.4 µM); MIC50 (Candida albicans [13]): 4 µg/mL (≈ 17.4 µM); MIC50 (Aspergillus fumigatus [14]): 4 µg/mL; MIC50 (Candida albicans [15]): 2 µg/mL; MIC50 (Candida albicans [16]): 0.25 µg/mL; MIC50 (Candida albicans [17]): 4 µg/mL
COC(=O)[C@@H](Cn1cncn1)NC(=O)[C@@H](C)c1ccc(-c2ccccc2)c(F)c1 | 1 (≈ 2.52 µM) | 2 (≈ 5.05 µM) | 0.5 (≈ 1.26 µM) | 2 (≈ 5.05 µM) | 4 (≈ 10.1 µM) | 
CC(C)OC(=O)[C@@H](Cn1ccnc1)NC(=O)[C@@H](C)c1cccc(C(=O)c2ccccc2)c1 | 0.5 (≈ 1.15 µM) | 2 (≈ 4.61 µM) | 1 (≈ 2.31 µM) | 1 (≈ 2.31 µM) | > 8 | 
COc1ccc2cc([C@H](C)C(=O)NC(Cn3ccnc3)C(=O)c3ccccc3)ccc2c1 (some centres undefined) | 0.5 (≈ 1.17 µM) | 0.5 (≈ 1.17 µM) | 0.25 (≈ 0.585 µM) | 0.5 (≈ 1.17 µM) | 2 (≈ 4.68 µM) | 
COC(=O)[C@@H](Cn1ccnc1)NC(=O)[C@@H](C)c1ccc2cc(OC)ccc2c1 | 1 (≈ 2.62 µM) | 1 (≈ 2.62 µM) | 0.25 (≈ 0.655 µM) | 0.58 (≈ 1.52 µM) | > 8 | 
COC(=O)[C@@H](Cn1cncn1)NC(=O)[C@@H](C)c1cccc(C(=O)c2ccccc2)c1 | 0.5 (≈ 1.23 µM) | 1 (≈ 2.46 µM) | 0.5 (≈ 1.23 µM) | 1 (≈ 2.46 µM) | 2 (≈ 4.92 µM) | Activity (Candida albicans [18]): 0.54%; Activity (Candida albicans [19]): 34.69%; Activity (Candida albicans [20]): 0.9%; Activity (Candida albicans [21]): 64.15%; Activity (Candida albicans [22]): 0.9%; Activity (Candida albicans [23]): 54.56%; Activity (Candida albicans [24]): 0.26%
COC(=O)[C@@H](Cn1ccnc1)NC(=O)[C@@H](C)c1cccc(C(=O)c2ccccc2)c1 | 2 (≈ 4.93 µM) | 0.5 (≈ 1.23 µM) | 1 (≈ 2.47 µM) | 1 (≈ 2.47 µM) | 4 (≈ 9.87 µM) | 
